The source of these data is US20230089867A1, “CYCLIC PENTAMER COMPOUNDS AS PROPROTEIN CONVERTASE SUBTILISIN/KEXIN TYPE 9 (PCSK9) INHIBITORS FOR THE TREATMENT OF METABOLIC DISORDER” (Novartis AG, priority 2018, published 2023).

The assay addresses human PCSK9 (Homo sapiens, UniProt Q8NBP7). Put plainly: PCSK9 ligand binding TR-FRET assay (interference with binding of human PCSK9 to human LDLR). Conditions: for Max % inhibition: PCSK9 FRET assay, efficacy (Amax), 100% = 1 uM unlabeled human PCSK9, 0% = DMSO; for IC50: TR-FRET, human PCSK9 Alexa Fluor 647 / human LDLR extracellular domain-Europium Kryptate, read-out: PCSK9 FRET Assay IC50. In outline:
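Threefold compound dilutions were pre-incubated 30 min with PCSK9, after which 4 nM Europium Kryptate-tagged human LDLR ectodomain was added for a further 2 h.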

Chain of human PCSK9 (Q8NBP7 153-692): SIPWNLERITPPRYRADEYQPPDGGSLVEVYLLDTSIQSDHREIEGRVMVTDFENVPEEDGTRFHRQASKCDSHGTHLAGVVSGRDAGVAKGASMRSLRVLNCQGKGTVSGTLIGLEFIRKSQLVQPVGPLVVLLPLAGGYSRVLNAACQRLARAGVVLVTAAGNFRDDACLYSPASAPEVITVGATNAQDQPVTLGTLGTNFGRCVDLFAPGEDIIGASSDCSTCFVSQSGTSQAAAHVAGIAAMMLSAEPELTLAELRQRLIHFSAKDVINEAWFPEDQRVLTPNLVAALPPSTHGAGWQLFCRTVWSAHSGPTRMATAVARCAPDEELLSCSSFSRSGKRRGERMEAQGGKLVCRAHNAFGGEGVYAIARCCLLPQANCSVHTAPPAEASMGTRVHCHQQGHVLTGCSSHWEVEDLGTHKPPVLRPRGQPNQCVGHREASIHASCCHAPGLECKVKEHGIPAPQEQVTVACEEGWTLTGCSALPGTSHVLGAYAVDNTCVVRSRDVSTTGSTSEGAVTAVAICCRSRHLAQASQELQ
Chain of human PCSK9 (Q8NBP7 31-152 partner limits assumed): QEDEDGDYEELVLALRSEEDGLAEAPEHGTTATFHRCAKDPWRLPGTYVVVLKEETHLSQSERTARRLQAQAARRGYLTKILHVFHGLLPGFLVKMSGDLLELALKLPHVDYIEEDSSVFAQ

Take `C[C@H]1C(=O)N[C@@H](COC(=O)C(C)(C)C)C(=O)N(C)[C@@H](Cc2ccc(Cl)cc2)CC(=O)N[C@H]2CCCC[C@@H]2N(C)C(=O)[C@H](Cc2ccccc2)CC(=O)N1Cc1ccc(Cl)cc1Oc1ccc(-c2cnc(CN(C)C)n2C)cc1` [Compound 226, ((4S,7S,10S,14R,16aS,20aS)-14-benzyl-11-(4-chloro-2-(4-(2-((dimethylamino)methyl)-1-methyl-1H-imidazol-5-yl)phenoxy)benzyl)-4-(4-chlorobenzyl)-5,10,16-trimethyl-2,6,9,12,15-pentaoxodocosahydrobenzo[l][1,4,7,11,14]pentaazacyclooctadecin-7-yl)methyl pivalate]: the Max % inhibition amounted to 42.24% and the IC50 was found to be 249 nM.

For the molecule `COC[C@@H]1NC(=O)[C@H](C)N(Cc2ccc(Cl)cc2Oc2ccc(-c3cnc(CN(C)C)n3C)cc2)C(=O)CN2C[C@H](CNC(=O)C[C@H](Cc3ccc(Cl)cc3)N(C)C1=O)N(C)C2=O` [Compound 227, (5S,8S,11S,16S)-4-(4-chloro-2-(4-(2-((dimethylamino)methyl)-1-methyl-1H-imidazol-5-yl)phenoxy)benzyl)-11-(4-chlorobenzyl)-8-(methoxymethyl)-5,10,17-trimethyl-1,4,7,10,14,17-hexaazabicyclo[14.2.1]nonadecane-3,6,9,13,18-pentaone], the Max % inhibition is given as 104.70% and the IC50 was found to be 8.8 nM.

In the case of `COC[C@@H]1NC(=O)C(C)N(Cc2ccc(F)cc2Oc2ccc(-c3cnc(CN(C)C)n3C)cc2)C(=O)C[C@@H](Cc2ccccc2)C(=O)N(C)[C@H]2CCCC[C@@H]2NC(=O)C[C@H](Cc2ccc(Cl)cc2)N(C)C1=O` (stereo partly drawn) [Compound 228, (4S,7S,14R,16aS,20aS)-14-benzyl-4-(4-chlorobenzyl)-11-(2-(4-(2-((dimethylamino)methyl)-1-methyl-1H-imidazol-5-yl)phenoxy)-4-fluorobenzyl)-7-(methoxymethyl)-5,10,16-trimethylhexadecahydrobenzo[l][1,4,7,11,14]pentaazacyclooctadecine-2,6,9,12,15(3H)-pentaone], the Max % inhibition was found to be 93.92% and the half-inhibitory concentration (IC50) was found to be 8.4 nM.

As to `COC[C@@H]1NC(=O)[C@H](C)N(Cc2ccc(Cl)cc2Oc2ccc(-c3cnc(CN4CCCC4)n3C)cc2)C(=O)C[C@@H](Cc2ccccc2F)C(=O)N(C)[C@@H](C)CNC(=O)C[C@H](Cc2ccc(Cl)cc2)N(C)C1=O` [Compound 229, (2S,5S,8S,13S,16R)-1-(4-chloro-2-(4-(1-methyl-2-(pyrrolidin-1-ylmethyl)-1H-imidazol-5-yl)phenoxy)benzyl)-8-(4-chlorobenzyl)-16-(2-fluorobenzyl)-5-(methoxymethyl)-2,7,13,14-tetramethyl-1,4,7,11,14-pentaazacyclooctadecane-3,6,10,15,18-pentaone], the Max % inhibition came out at 99.91% and the IC50 came to 0.6 nM.

For `COC[C@@H]1NC(=O)[C@H](C)N(Cc2c(Cl)cccc2Oc2ccc(-c3cnc(CN(C)C)n3C)cc2)C(=O)C[C@@H](C)C(=O)N(C)[C@@H](C)CNC(=O)C[C@H](Cc2ccc(Cl)cc2)N(C)C1=O` [Compound 230, (2S,5S,8S,13S,16R)-1-(2-chloro-6-(4-(2-((dimethylamino)methyl)-1-methyl-1H-imidazol-5-yl)phenoxy)benzyl)-8-(4-chlorobenzyl)-5-(methoxymethyl)-2,7,13,14,16-pentamethyl-1,4,7,11,14-pentaazacyclooctadecane-3,6,10,15,18-pentaone], the Max % inhibition is given as 46.03% and the IC50 was found to be 77.8 nM.

Turning to `COC[C@@H]1NC(=O)[C@H](C)N(Cc2cccc(F)c2Oc2ccc(-c3cnc(CN(C)C)n3C)cc2)C(=O)C[C@@H](Cc2ccccc2)C(=O)N(C)[C@@H](C)CNC(=O)C[C@H](Cc2ccc(Cl)cc2)N(C)C1=O` [Compound 232, (2S,5S,8S,13S,16R)-16-benzyl-8-(4-chlorobenzyl)-1-(2-(4-(2-((dimethylamino)methyl)-1-methyl-1H-imidazol-5-yl)phenoxy)-3-fluorobenzyl)-5-(methoxymethyl)-2,7,13,14-tetramethyl-1,4,7,11,14-pentaazacyclooctadecane-3,6,10,15,18-pentaone], the Max % inhibition is given as 96.17% and the IC50 turned out to be 5.7 nM.

For `C[C@H]1CNC(=O)C[C@H](Cc2ccc(Cl)cc2)N(C)C(=O)[C@H](CCC(=O)O)NC(=O)[C@H](C)N(Cc2ccc(Cl)cc2Oc2ccc(-c3cnc(CN(C)C)n3C)cc2)C(=O)C[C@@H](Cc2ccccc2)C(=O)N1C` [Compound 233, 3-((2S,5S,8S,13S,16R)-16-benzyl-1-(4-chloro-2-(4-(2-((dimethylamino)methyl)-1-methyl-1H-imidazol-5-yl)phenoxy)benzyl)-8-(4-chlorobenzyl)-2,7,13,14-tetramethyl-3,6,10,15,18-pentaoxo-1,4,7,11,14-pentaazacyclooctadecan-5-yl)propanoic acid], the Max % inhibition is recorded as 90.08% and the concentration for half-maximal inhibition (IC50) came out at 705 nM.

Regarding `COC[C@@H]1NC(=O)[C@H](COC)N(Cc2ccc(Cl)cc2Oc2ccc(-c3cnc(CN(C)C)n3C)cc2)C(=O)C[C@@H](Cc2ccccc2)C(=O)N(C)[C@H]2CCCC[C@@H]2NC(=O)C[C@H](Cc2ccc(Cl)cc2)N(C)C1=O` [Compound 234, (4S,7S,10S,14R,16aS,20aS)-14-benzyl-11-(4-chloro-2-(4-(2-((dimethylamino)methyl)-1-methyl-1H-imidazol-5-yl)phenoxy)benzyl)-4-(4-chlorobenzyl)-7,10-bis(methoxymethyl)-5,16-dimethylhexadecahydrobenzo[l][1,4,7,11,14]pentaazacyclooctadecine-2,6,9,12,15(3H)-pentaone], the Max % inhibition worked out at 100.63% and the IC50 amounted to 0.8 nM.

Take `COC[C@@H]1NC(=O)[C@H](C)N(Cc2ccc(Cl)cc2Oc2ccc(-c3cnc(CN(C)C)n3C)cc2)C(=O)C[C@@H](Cc2ccccc2)C(=O)N(C)[C@@H](CO)CNC(=O)C[C@H](Cc2ccc(Cl)cc2)N(C)C1=O` [Compound 235, (2S,5S,8S,13R,16R)-16-benzyl-1-(4-chloro-2-(4-(2-((dimethylamino)methyl)-1-methyl-1H-imidazol-5-yl)phenoxy)benzyl)-8-(4-chlorobenzyl)-13-(hydroxymethyl)-5-(methoxymethyl)-2,7,14-trimethyl-1,4,7,11,14-pentaazacyclooctadecane-3,6,10,15,18-pentaone]: the Max % inhibition stood at 100.56% and the IC50 is 11.1 nM.

As to `COC[C@@H]1NC(=O)[C@H](C)N(Cc2c(F)cc(F)cc2Oc2ccc(-c3cnc(CN(C)C)n3C)cc2)C(=O)C[C@@H](Cc2ccccc2)C(=O)N(C)[C@@H](C)CNC(=O)C[C@H](Cc2ccc(Cl)cc2)N(C)C1=O` [Compound 236, (2S,5S,8S,13S,16R)-16-benzyl-8-(4-chlorobenzyl)-1-(2-(4-(2-((dimethylamino)methyl)-1-methyl-1H-imidazol-5-yl)phenoxy)-4,6-difluorobenzyl)-5-(methoxymethyl)-2,7,13,14-tetramethyl-1,4,7,11,14-pentaazacyclooctadecane-3,6,10,15,18-pentaone], the Max % inhibition amounted to 95.33% and the IC50 was determined as 6.6 nM.

Take `COC[C@@H]1NC(=O)[C@H](CC(=O)OC(C)(C)C)N(Cc2ccc(Cl)cc2Oc2ccc(-c3cnc(CN(C)C)n3C)cc2)C(=O)C[C@@H](Cc2ccccc2)C(=O)N(C)[C@H]2CCCC[C@@H]2NC(=O)C[C@H](Cc2ccc(Cl)cc2)N(C)C1=O` [Compound 237, tert-butyl 2-((4S,7S,10S,14R,16aS,20aS)-14-benzyl-11-(4-chloro-2-(4-(2-((dimethylamino)methyl)-1-methyl-1H-imidazol-5-yl)phenoxy)benzyl)-4-(4-chlorobenzyl)-7-(methoxymethyl)-5,16-dimethyl-2,6,9,12,15-pentaoxodocosahydrobenzo[l][1,4,7,11,14]pentaazacyclooctadecin-10-yl)acetate]: the Max % inhibition is recorded as 102.97% and the IC50 stood at 1.4 nM.

In the case of `COC[C@@H]1NC(=O)[C@H](C)N(Cc2ccc(Cl)cc2Oc2ccc(-c3cnc(CN(C)C)n3C)cc2)C(=O)C[C@@H](Cc2cccc(OC(F)F)c2)C(=O)N(C)[C@@H](C)CNC(=O)C[C@H](Cc2ccc(Cl)cc2)N(C)C1=O` [Compound 238, (2S,5S,8S,13S,16R)-1-(4-chloro-2-(4-(2-((dimethylamino)methyl)-1-methyl-1H-imidazol-5-yl)phenoxy)benzyl)-8-(4-chlorobenzyl)-16-(3-(difluoromethoxy)benzyl)-5-(methoxymethyl)-2,7,13,14-tetramethyl-1,4,7,11,14-pentaazacyclooctadecane-3,6,10,15,18-pentaone], the Max % inhibition was determined as 104.90% and the half-inhibitory concentration (IC50) stood at 2.5 nM.

As for `COCCN(C)C(=O)C[C@H]1C(=O)N[C@@H](COC)C(=O)N(C)[C@@H](Cc2ccc(Cl)cc2)CC(=O)N[C@H]2CCCC[C@@H]2N(C)C(=O)[C@H](Cc2ccccc2)CC(=O)N1Cc1ccc(Cl)cc1Oc1ccc(-c2cnc(CN(C)C)n2C)cc1` [Compound 239, 2-((4S,7S,10S,14R,16aS,20aS)-14-benzyl-11-(4-chloro-2-(4-(2-((dimethylamino)methyl)-1-methyl-1H-imidazol-5-yl)phenoxy)benzyl)-4-(4-chlorobenzyl)-7-(methoxymethyl)-5,16-dimethyl-2,6,9,12,15-pentaoxodocosahydrobenzo[l][1,4,7,11,14]pentaazacyclooctadecin-10-yl)-N-(2-methoxyethyl)-N-methylacetamide], the Max % inhibition was determined as 106.17% and the half-maximal inhibitory concentration (IC50) was 1.3 nM.

For `COC[C@@H]1NC(=O)[C@H](C)N(Cc2ccc(C)cc2Oc2ccc(-c3cnc(CN(C)C)n3C)cc2)C(=O)C[C@@H](Cc2ccccc2)C(=O)N(C)[C@@H](C)CNC(=O)C[C@H](Cc2ccc(Cl)cc2)N(C)C1=O` [Compound 240, (2S,5S,8S,13S,16R)-16-benzyl-8-(4-chlorobenzyl)-1-(2-(4-(2-((dimethylamino)methyl)-1-methyl-1H-imidazol-5-yl)phenoxy)-4-methylbenzyl)-5-(methoxymethyl)-2,7,13,14-tetramethyl-1,4,7,11,14-pentaazacyclooctadecane-3,6,10,15,18-pentaone], the Max % inhibition is reported as 99.28% and the concentration for half-maximal inhibition (IC50) came to 0.9 nM.

One may read the IC50 as the concentration that gives 50% inhibition.
